Source: ChEMBL document CHEMBL4052813, “Achyrodimer F, a tyrosyl-DNA phosphodiesterase I inhibitor from an Australian fungus of the family Cortinariaceae” (Bioorg Med Chem Lett, 2017)

Key:
[1] = biological target: T1, Tyrosyl-DNA phosphodiesterase 1 (Homo sapiens, UniProt Q9NUW8); experiment: Inhibition of Tdp1 (unknown origin) using 5'-(6-TAMN-AGGATCTAAAAGACTT-BHQ-)3' as substrate pretreated for 30 mins followed by substrate addition by fluorescence assay
[2] = biological target: T1, Tyrosyl-DNA phosphodiesterase 1; experiment: Inhibition of Tdp1 (unknown origin) up to 40 uM using 5'-(6-TAMN-AGGATCTAAAAGACTT-BHQ-)3' as substrate pretreated for 30 mins followed by substrate addition by fluorescence assay

T1 sequence (Q9NUW8 whole entry): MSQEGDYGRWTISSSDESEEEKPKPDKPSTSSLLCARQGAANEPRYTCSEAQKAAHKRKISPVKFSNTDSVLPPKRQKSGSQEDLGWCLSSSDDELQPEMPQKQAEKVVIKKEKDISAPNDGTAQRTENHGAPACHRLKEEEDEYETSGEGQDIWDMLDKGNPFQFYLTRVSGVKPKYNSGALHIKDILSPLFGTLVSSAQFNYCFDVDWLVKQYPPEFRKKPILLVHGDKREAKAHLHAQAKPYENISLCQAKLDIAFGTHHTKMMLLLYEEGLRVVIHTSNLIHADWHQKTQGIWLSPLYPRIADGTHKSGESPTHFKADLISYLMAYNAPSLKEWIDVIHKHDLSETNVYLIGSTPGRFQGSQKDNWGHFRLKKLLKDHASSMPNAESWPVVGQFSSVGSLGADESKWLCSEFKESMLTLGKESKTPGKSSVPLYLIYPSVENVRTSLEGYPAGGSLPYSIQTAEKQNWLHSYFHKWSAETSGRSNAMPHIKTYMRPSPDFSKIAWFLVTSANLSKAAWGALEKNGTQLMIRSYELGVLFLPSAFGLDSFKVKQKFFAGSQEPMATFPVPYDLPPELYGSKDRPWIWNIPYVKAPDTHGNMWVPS

| SMILES | IC50 [1] [µM] | inhibition [2] |
| --- | --- | --- |
| O=c1cc(O)cc([C@H]2[C@H](c3ccc(O)cc3)[C@H](c3cc(O)cc(=O)o3)[C@H]2c2ccc(O)cc2)o1 | 1 |  |
| O=c1cc(O)cc(/C=C/c2ccc(O)cc2)o1 |  | Dose-dependent effect |
| O=c1cc(O)cc(/C=C/c2ccc(O)c(O)c2)o1 |  | Dose-dependent effect |
